Target: human capsaicin receptor (VR1) (Homo sapiens, UniProt Q8NER1)
Experiment: Capsaicin receptor binding assay ([3H]RTX competition, VR1-transfected HEK293 membranes)

Chain of human capsaicin receptor (VR1) (Q8NER1 whole entry): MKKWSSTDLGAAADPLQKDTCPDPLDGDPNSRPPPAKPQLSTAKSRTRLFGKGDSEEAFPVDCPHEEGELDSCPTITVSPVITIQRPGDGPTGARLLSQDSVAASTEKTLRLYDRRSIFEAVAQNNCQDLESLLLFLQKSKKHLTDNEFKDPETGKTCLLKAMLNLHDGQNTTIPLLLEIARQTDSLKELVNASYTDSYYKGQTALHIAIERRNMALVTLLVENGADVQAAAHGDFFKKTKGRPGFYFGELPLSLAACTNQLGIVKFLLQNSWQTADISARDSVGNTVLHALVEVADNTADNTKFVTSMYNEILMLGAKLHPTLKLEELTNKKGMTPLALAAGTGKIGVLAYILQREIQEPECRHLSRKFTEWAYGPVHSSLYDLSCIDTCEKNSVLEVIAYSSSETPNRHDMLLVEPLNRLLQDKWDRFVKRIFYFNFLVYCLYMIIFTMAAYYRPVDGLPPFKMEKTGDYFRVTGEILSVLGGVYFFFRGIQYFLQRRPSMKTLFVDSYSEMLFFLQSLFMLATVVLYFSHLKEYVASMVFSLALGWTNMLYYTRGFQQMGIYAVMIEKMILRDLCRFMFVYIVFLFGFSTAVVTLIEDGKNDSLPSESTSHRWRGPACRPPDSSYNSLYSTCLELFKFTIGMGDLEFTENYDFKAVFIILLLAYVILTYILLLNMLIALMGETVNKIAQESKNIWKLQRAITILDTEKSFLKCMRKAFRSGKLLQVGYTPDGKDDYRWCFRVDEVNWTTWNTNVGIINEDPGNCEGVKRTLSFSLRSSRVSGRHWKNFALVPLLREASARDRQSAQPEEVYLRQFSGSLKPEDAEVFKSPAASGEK

Ki, < 1000 nM:
CCC(c1ccccc1)N(C)Cc1nc(Nc2ccc(C(F)(F)F)nc2)c2ccc(-c3ncccc3C(F)(F)F)cc2n1 (stereo not drawn) [Compound 350, [2-{[Methyl-1-(1-phenyl-propyl)-amino]-methyl}-7-(3-trifluoromethyl-pyridin-2-yl)-quinazolin-4-yl]-(6-trifluoromethyl-pyridin-3-yl)-amine]
CC1c2ccccc2CCN1Cc1nc(Nc2ccc(C(F)(F)F)nc2)c2ccc(-c3ncccc3C(F)(F)F)cc2n1 (stereo not drawn) [Compound 351, [2-(1-Methyl-3,4-dihydro-1H-isoquinolin-2-ylmethyl)-7-(3-trifluoromethyl-pyridin-2-yl)-quinazolin-4-yl]-(6-trifluoromethyl-pyridin-3-yl)-amine]
FC(F)(F)c1ccc(Nc2nc(CN3CCc4ccccc4C3)nc3cc(-c4ncccc4C(F)(F)F)ccc23)cn1 [Compound 352, [2-(3,4-Dihydro-1H-isoquinolin-2-ylmethyl)-7-(3-trifluoromethyl-pyridin-2-yl)-quinazolin-4-yl]-(6-trifluoromethyl-pyridin-3-yl)-amine]
CN(Cc1cccc(F)c1)Cc1nc(Nc2ccc(C(F)(F)F)nc2)c2ccc(-c3ncccc3C(F)(F)F)cc2n1 [Compound 353]
Cc1ccccc1CN(C)Cc1nc(Nc2ccc(C(F)(F)F)nc2)c2ccc(-c3ncccc3C(F)(F)F)cc2n1 [Compound 354, [2-{[Methyl-(2-methyl-benzyl)-amino]-methyl}-7-(3-trifluoromethyl-pyridin-2-yl)-quinazolin-4-yl]-(6-trifluoromethyl-pyridin-3-yl)-amine]
CN(Cc1nc(Nc2ccc(C(F)(F)F)nc2)c2ccc(-c3ncccc3C(F)(F)F)cc2n1)Cc1ccccc1F [Compound 355, [2-{[(2-Fluoro-benzyl)-methyl-amino]-methyl}-7-(3-trifluoromethyl-pyridin-2-yl)-quinazolin-4-yl]-(6-trifluoromethyl-pyridin-3-yl)-amine]
CN(CCc1ccccc1)Cc1nc(Nc2ccc(C(F)(F)F)nc2)c2ccc(-c3ncccc3C(F)(F)F)cc2n1 [Compound 357, [2-[(Methyl-phenethyl-amino)-methyl]-7-(3-trifluoromethyl-pyridin-2-yl)-quinazolin-4-yl]-(6-trifluoromethyl-pyridin-3-yl)-amine]
FC(F)(F)c1ccc(Nc2nc(CN3CCCC3)nc3cc(-c4ncccc4C(F)(F)F)ccc23)cn1 [Compound 358, [2-Pyrrolidin-1-ylmethyl-7-(3-trifluoromethyl-pyridin-2-yl)-quinazolin-4-yl]-(6-trifluoromethyl-pyridin-3-yl)-amine]
FC(F)(F)c1ccc(Nc2nc(CN3CCCCC3)nc3cc(-c4ncccc4C(F)(F)F)ccc23)cn1 [Compound 359, [2-Piperidin-1-ylmethyl-7-(3-trifluoromethyl-pyridin-2-yl)-quinazolin-4-yl]-(6-trifluoromethyl-pyridin-3-yl)-amine]
CC1CCN(Cc2nc(Nc3ccc(C(F)(F)F)nc3)c3ccc(-c4ncccc4C(F)(F)F)cc3n2)CC1 [Compound 360, [2-(4-Methyl-piperidin-1-ylmethyl)-7-(3-trifluoromethyl-pyridin-2-yl)-quinazolin-4-yl]-(6-trifluoromethyl-pyridin-3-yl)-amine]
FC(F)(F)c1ccc(Nc2nc(CN3CCCCCC3)nc3cc(-c4ncccc4C(F)(F)F)ccc23)cn1 [Compound 361, [2-Azepan-1-ylmethyl-7-(3-trifluoromethyl-pyridin-2-yl)-quinazolin-4-yl]-(6-trifluoromethyl-pyridin-3-yl)-amine]
FC(F)(F)c1ccc(Nc2nc(CN3CCCCCCC3)nc3cc(-c4ncccc4C(F)(F)F)ccc23)cn1 [Compound 362, [2-Azocan-1-ylmethyl-7-(3-trifluoromethyl-pyridin-2-yl)-quinazolin-4-yl]-(6-trifluoromethyl-pyridin-3-yl)-amine]
CC1CCN(Cc2nc(Nc3ccc(C(F)(F)F)nc3)c3ccc(-c4ncccc4C(F)(F)F)cc3n2)CC(C)(C)C1 (stereo not drawn) [Compound 363, (6-Trifluoromethyl-pyridin-3-yl)-[7-(3-trifluoromethyl-pyridin-2-yl)-2-(3,3,5-trimethyl-azepan-1-ylmethyl)-quinazolin-4-yl]-amine]
FC(F)(F)c1ccc(Nc2nc(CN3CCC4(CC3)OCCO4)nc3cc(-c4ncccc4C(F)(F)F)ccc23)cn1 [Compound 364, [2-(1,4-Dioxa-8-aza-spiro[4.5]dec-8-ylmethyl)-7-(3-trifluoromethyl-pyridin-2-yl)-quinazolin-4-yl]-(6-trifluoromethyl-pyridin-3-yl)-amine]
FC(F)(F)c1ccc(Nc2nc(CN3CCCC4CCCCC43)nc3cc(-c4ncccc4C(F)(F)F)ccc23)cn1 (stereo not drawn) [Compound 365, [2-(Octahydro-quinolin-1-ylmethyl)-7-(3-trifluoromethyl-pyridin-2-yl)-quinazolin-4-yl]-(6-trifluoromethyl-pyridin-3-yl)-amine]
CN(C)Cc1nc(Nc2ccc(C(F)(F)F)nc2)c2ccc(-c3ncccc3C(F)(F)F)cc2n1 [Compound 366, [2-Dimethylaminomethyl-7-(3-trifluoromethyl-pyridin-2-yl)-quinazolin-4-yl]-(6-trifluoromethyl-pyridin-3-yl)-amine]
C=CCN(C)Cc1nc(Nc2ccc(C(F)(F)F)nc2)c2ccc(-c3ncccc3C(F)(F)F)cc2n1 [Compound 367, [2-[(Allyl-methyl-amino)-methyl]-7-(3-trifluoromethyl-pyridin-2-yl)-quinazolin-4-yl]-(6-trifluoromethyl-pyridin-3-yl)-amine]
CCN(CC)Cc1nc(Nc2ccc(C(F)(F)F)nc2)c2ccc(-c3ncccc3C(F)(F)F)cc2n1 [Compound 368, [2-Diethylaminomethyl-7-(3-trifluoromethyl-pyridin-2-yl)-quinazolin-4-yl]-(6-trifluoromethyl-pyridin-3-yl)-amine]
CCCN(C)Cc1nc(Nc2ccc(C(F)(F)F)nc2)c2ccc(-c3ncccc3C(F)(F)F)cc2n1 [Compound 369, [2-[(Methyl-propyl-amino)-methyl]-7-(3-trifluoromethyl-pyridin-2-yl)-quinazolin-4-yl]-(6-trifluoromethyl-pyridin-3-yl)-amine]
CCCCN(C)Cc1nc(Nc2ccc(C(F)(F)F)nc2)c2ccc(-c3ncccc3C(F)(F)F)cc2n1 [Compound 370, [2-[(Butyl-methyl-amino)-methyl]-7-(3-trifluoromethyl-pyridin-2-yl)-quinazolin-4-yl]-(6-trifluoromethyl-pyridin-3-yl)-amine]
CCN(Cc1nc(Nc2ccc(C(F)(F)F)nc2)c2ccc(-c3ncccc3C(F)(F)F)cc2n1)C(C)C [Compound 371, [2-[(Ethyl-isopropyl-amino)-methyl]-7-(3-trifluoromethyl-pyridin-2-yl)-quinazolin-4-yl]-(6-trifluoromethyl-pyridin-3-yl)-amine]

From patent US20040156869A1, “2-substituted quinazolin-4-ylamine analogues” (Neurogen Corporation, priority 2002, published 2004)
